The source of these data is patent US11555026B2, “AHR inhibitors and uses thereof” (Ikena Oncology, Inc., priority 2017, dated 2023).

Bounds are passed on as bounds.

The target in assay [1] is T1, AHR (UniProt P35869).
T1 sequence (P35869 1-848): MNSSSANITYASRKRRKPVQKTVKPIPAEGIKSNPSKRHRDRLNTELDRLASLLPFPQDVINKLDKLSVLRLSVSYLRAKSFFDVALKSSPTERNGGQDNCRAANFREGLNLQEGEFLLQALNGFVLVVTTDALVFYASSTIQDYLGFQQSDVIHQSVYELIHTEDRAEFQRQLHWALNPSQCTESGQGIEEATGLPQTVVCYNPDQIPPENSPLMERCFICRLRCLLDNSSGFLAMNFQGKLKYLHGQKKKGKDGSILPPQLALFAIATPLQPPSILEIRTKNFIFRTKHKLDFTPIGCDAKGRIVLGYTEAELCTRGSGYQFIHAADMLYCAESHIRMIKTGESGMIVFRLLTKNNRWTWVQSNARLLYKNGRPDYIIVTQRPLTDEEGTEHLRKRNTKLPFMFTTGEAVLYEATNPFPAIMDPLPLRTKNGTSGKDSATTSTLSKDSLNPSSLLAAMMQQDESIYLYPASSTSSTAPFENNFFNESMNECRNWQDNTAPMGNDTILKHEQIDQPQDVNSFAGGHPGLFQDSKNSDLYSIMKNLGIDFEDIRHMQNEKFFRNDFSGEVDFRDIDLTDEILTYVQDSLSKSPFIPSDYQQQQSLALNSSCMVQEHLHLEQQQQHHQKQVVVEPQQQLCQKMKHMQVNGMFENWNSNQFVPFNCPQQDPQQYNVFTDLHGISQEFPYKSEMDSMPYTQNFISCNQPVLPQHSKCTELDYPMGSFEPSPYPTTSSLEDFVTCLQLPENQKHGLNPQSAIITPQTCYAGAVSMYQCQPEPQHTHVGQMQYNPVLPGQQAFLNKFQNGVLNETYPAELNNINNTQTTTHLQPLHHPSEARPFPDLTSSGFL
Put plainly: DRE-Luciferase Reporter Assay (Example 1A). Format: cell-based. The arrangement: IC50. Conditions: concentration which inhibits half of the luciferase activity induced by an AHR activating ligand; murine (Hepa1-6, Hepa-1c1c7) or human (HepG2) DRE-luciferase reporter cells, cell line used not stated. How it is done:
(§1) AHR binds to Dioxin Responsive Elements (DRE) upstream of genes that it activates. One measure of AHR activity is activation of a reporter gene, such as luciferase, downstream of one or multiple DRE elements. Luciferase activity will reflect activation and inhibition of AHR in the cells expressing his reporter.
(§2) Murine Hepa1-6 or Hepa-1c1c7 or other murine cell line with a DRE-luciferase reporter either stably or transiently transfected were plated in media in plates (96-well, 384-well or other plates) and incubated overnight at 37° C. in a CO2 incubator. Likewise, human HepG2 or other human cell line with a DRE-luciferase reporter either stably or transiently transfected were plated in media in plates (96-well, 384-well or other plates) and incubated overnight at 37° C. in a CO2 incubator.
The next day, an AHR activating ligand, such as TCDD, kynurenine, ITE (2-(1H-indole-3-ylcarbonyl)-4-thiazolecarboxylic methyl ester), VAF347, BNF (beta-naphthoflavone), FICZ (6-formylindolo(3,2-b) carbazole or other AHR ligands, was added with or without AHR antagonist.
(§3) Cells were incubated for 4, 15 or 24 hours or another time point and then lysed for determination of luciferase activity as a read-out of the AHR activation or inhibition. Luciferase was measured with a commercial kit such as the Promega Luciferase kit or any kit or reagents that provide the luciferin substrate for measuring luciferase activity. The level of luciferase with only activating ligand added was the maximum signal while the luciferase with no ligand was the minimum signal. IC50 values were determined as the concentration which inhibits half of the luciferase activity.
On the technique in general: In a reporter assay the amount or activity of a reporter protein is the signal.

Assay [2] concerns the target T1, AHR. Put plainly: DRE-Luciferase Reporter Assay (Alternate Method, Example 1B). It counts as cell-based. Details: IC50; other: alternate method: compound and agonist added at plating or after overnight incubation; murine (Hepa1-6, He). Conditions: alternate method: compound and agonist added at plating or after overnight incubation; murine (Hepa1-6, Hepa-1c1c7) or human (HepG2) DRE-luciferase reporter cells, cell line used not stated. How it is done: as §1
as §2, with “incubator or compound and agonist were added at the time of plating.” for “incubator.”
At the time that cells are plated or following incubation overnight, an AHR activating ligand, such as TCDD, kynurenine, ITE (2-(1H-indole-3-ylcarbonyl)-4-thiazolecarboxylic methyl ester), VAF347, BNF (beta-naphthoflavone), FICZ (6-formylindolo(3,2-b) carbazole or other AHR ligands, was added with or without AHR antagonist.
as §3

Regarding `Cc1cc(C2OC2c2ccccc2)ccc1NC(=O)c1ccnn1C` (centres unmarked) [I-21], the IC50 (as a rule, the concentration that gives 50% inhibition) on AHR [1] is greater than 1500 nM.

Regarding `Cc1ccccc1NC(=O)c1ccc(NC(=O)c2ccnn2C)c(C)n1` [I-12, 6-Methyl-5-(1-methyl-1H-pyrazole-5-carboxamido)-N-(o-tolyl)picolinamide], the concentration for half-maximal inhibition (IC50) on AHR [1] lay in the range of 500 to 1000 nM. On the same count and under the same terms, to `Cc1cc(-c2cc3ccccc3cn2)ccc1NC(=O)c1ccnn1C` [I-31] belongs greater than 1500 nM.

Turning to `Cc1ccccc1CCc1ccc(NC(=O)c2ccnn2C)c(C)c1` [I-6, 1-methyl-N-(2-methyl-4-(2-methylphenethyl)phenyl)-1H-pyrazole-5-carboxamide], the IC50 against AHR [1] was greater than 1500 nM.

`Cc1cc(-c2ccc3ccccc3c2)ccc1NC(=O)c1ccnn1C` [I-32] had an IC50 against AHR [1] greater than 1500 nM.

`Cc1ccccc1/C=C/c1ccc(NC(=O)c2ccnn2C)cc1` [I-27, 2-Methyl-N-[4-[(E)-2-(o-tolyl)vinyl]phenyl]pyrazole-3-carboxamide] yielded an IC50 on AHR [1] of 500 to 1000 nM. `Cc1ccccc1/N=N/c1ccc(NC(=O)c2ccccn2)c(C)c1` [I-14] registered an IC50 on AHR [1] greater than 1500 nM. On the same count and under the same terms, to `Cc1ccccc1/C=C/c1ccc(NC(=O)c2cncn2C)c(C)c1` [I-37] belongs greater than 1500 nM. The same measure, in the same setting: to `Cc1cc(C(=O)Nc2ncccc2C)ccc1NC(=O)c1ccnn1C` [I-3] belongs greater than 1500 nM; to `Cc1cc(C2OC2c2ccccc2C)ccc1NC(=O)c1ccnn1C` (centres unmarked) [I-23, 2-Methyl-N-[2-methyl-4-[3-(o-tolyl)oxiran-2-yl]phenyl]pyrazole-3-carboxamide], less than 500 nM.

`Cc1ccccc1NCc1ccc(NC(=O)c2ccnn2C)c(C)c1` [I-11, 1-methyl-N-(2-methyl-4-((o-tolylamino)methyl)phenyl)-1H-pyrazole-5-carboxamide] had an IC50 against AHR [1] greater than 1500 nM. On AHR [1], `Cc1ccccc1/N=N/c1ccc(NC(=O)c2ccnn2C)cc1C` [I-24, 2-Methyl-N-[3-methyl-4-[(E)-o-tolylazo]phenyl]pyrazole-3-carboxamide] had an IC50 of less than 500 nM. Compound `Cc1cc(/C=C/c2cccnc2C)ccc1NC(=O)c1ccnn1C` [I-19] had an IC50 against AHR [1] greater than 1500 nM.

On to `Cc1ccccc1/C=C\c1ccc(NC(=O)c2ccnn2C)c(C)c1` [I-7, (Z)-1-methyl-N-(2-methyl-4-(2-methylstyryl)phenyl)-1H-pyrazole-5-carboxamide], for which, at AHR [1], the IC50 is greater than 1500 nM. The same measure, in the same setting: to `Cc1cc(C(=O)N2CCc3ccccc32)ccc1NC(=O)c1ccnn1C` [I-2] belongs greater than 1500 nM; to `Cc1cc(C(=O)n2ccc3ccccc32)ccc1NC(=O)c1ccnn1C` [I-4], greater than 1500 nM. For the compound `Cc1ccccc1/C=C/c1ccc(NC(=O)c2ccnn2C)c(C)c1` [I-5, (E)-1-methyl-N-(2-methyl-4-(2-methylstyryl)phenyl)-1H-pyrazole-5-carboxamide], the IC50 on AHR [1] is less than 500 nM.

Take `Cc1cc(/N=N/c2ncccc2C)ccc1NC(=O)c1ccnn1C` [I-26]: the IC50 on AHR [1] is greater than 1500 nM. On to `Cc1cc(/C=C/c2ccccc2)ccc1NC(=O)c1ccnn1C` [I-20, 2-Methyl-N-[2-methyl-4-[(E)-styryl]phenyl]pyrazole-3-carboxamide], for which, on AHR [1], the IC50 was less than 500 nM.

Regarding `Cc1ccccc1-c1ccc2cc(NC(=O)c3ccnn3C)ccc2n1` [I-30], on AHR [1], the IC50 was greater than 1500 nM.

In turn, `Cc1cc(NC(=O)c2ccccc2C)ccc1NC(=O)c1ccnn1C` [I-9, 1-methyl-N-(2-methyl-4-(2-methylbenzamido)phenyl)-1H-pyrazole-5-carboxamide] had an IC50 on AHR [1] greater than 1500 nM. Still for that read-out and setting: to `Cc1cc(C(=N)Nc2ncccc2C)ccc1NC(=O)c1ccnn1C` [I-13] belongs greater than 1500 nM; to `Cc1cc(COc2ccccc2C)ccc1NC(=O)c1ccnn1C` [I-18, 2-Methyl-N-[2-methyl-4-[(2-methylphenoxy)methyl]phenyl]pyrazole-3-carboxamide], less than 500 nM; to `Cc1ccccc1/N=N/c1ccc(C(=O)Nc2ccnn2C)c(C)c1` [I-25, 2-Methyl-N-(2-methylpyrazol-3-yl)-4-[(E)-o-tolylazo]benzamide], less than 500 nM. The same measure, in the same setting: next, `Cc1cc(N)ccc1NC(=O)c1ccnn1C` [I-16]: greater than 1500 nM; `Cc1ccccc1C#Cc1ccc(NC(=O)c2ccnn2C)c(C)c1` [I-29, 2-Methyl-N-[2-methyl-4-[2-(o-tolyl)ethynyl]phenyl]pyrazole-3-carboxamide]: less than 500 nM. On the same count and under the same terms, next, `Cc1ccccc1CNc1ccc(NC(=O)c2ccnn2C)c(C)c1` [I-10, 1-methyl-N-(2-methyl-4-((2-methylbenzyl)amino)phenyl)-1H-pyrazole-5-carboxamide]: greater than 1500 nM; `Cc1ccccc1NC(=O)c1ccc(NC(=O)c2ccnn2C)c(C)c1` [I-8, 1-methyl-N-(2-methyl-4-(o-tolylcarbamoyl)phenyl)-1H-pyrazole-5-carboxamide]: greater than 1500 nM; `Cc1cc(C(=O)N2CCCc3ccccc32)ccc1NC(=O)c1ccnn1C` [I-1]: greater than 1500 nM.

In turn, `Cc1ccccc1/C=C/c1ccc(NC(=O)c2ccn[nH]2)c(C)c1` [I-36] returned an IC50 against AHR [1] greater than 1500 nM. For `Cn1nccc1C(=O)Nc1ccc2cc(-c3ccc(C(F)(F)F)cc3)cnc2c1` [I-87, 2-Methyl-N-[3-[4-(trifluoromethyl)phenyl]-7-quinolyl]pyrazole-3-carboxamide], the IC50 at AHR [2] was greater than 1500 nM.

`Cn1nccc1C(=O)Nc1ccc2cc(-c3ccc(O)cc3)cnc2c1` [I-86, N-[3-(4-Hydroxyphenyl)-7-quinolyl]-2-methyl-pyrazole-3-carboxamide]: the IC50 on AHR [2] was greater than 1500 nM. On to `Cn1nccc1C(=O)Nc1ccc2nc(-c3ccccc3)cnc2c1` [I-65], for which the IC50 on AHR [2] is 500 to 1000 nM.

On to `Cc1ccccc1NCc1ccc(NC(=O)c2ccnn2C)c(C)n1` [I-15, 2-Methyl-N-[2-methyl-6-[(2-methylanilino)methyl]-3-pyridyl]pyrazole-3-carboxamide], for which, at AHR [1], the IC50 fell in the range of 1000 to 1500 nM.

For `Cn1nccc1C(=O)Nc1ccc2nc(-c3ccccc3)ccc2c1` [I-22, 2-Methyl-N-(2-phenyl-6-quinolyl)pyrazole-3-carboxamide], the IC50 on AHR [1] was less than 500 nM.
